Source: patent publication US8507506B2, “Theophylline derivative inhibits osteoporosis” (Kaohsiung Medical University, priority 2011, dated 2013)

How the values were obtained:
Assay type in all cases: cell-based
RAW264.7 cells [1] = assay: MTT assay, proliferation induced by RANKL; conditions: RAW264.7, 10 μM
Protocol: Cells were plated onto 96-well plates at a density of 10^3 cells per well. After 24 hours incubation, the different concentrations of the different drugs were administrated into the plates. […] Subsequently, the medium was removed, and 100 μl/well isopropanol was added to solved formazan. The plates were shaken for 15 minutes and stood for 15 minutes, and then the absorbance was measured at wavelength of 540 nm and 630 nm. The ratio of the absorbance of treated cells relative to that of the control cells was calculated and expressed as a percentage of cell survival.

RAW264.7 cells [2] = assay: BrdU assay, proliferation induced by RANKL; conditions: RAW264.7, 10 μM
Protocol: The BrdU assay was followed the instructions of Cell Proliferation ELISA BrdU kit. 10^3 cells were plated per well in 96-well plates. […] After washing in wash buffer for three times, 100 μl/well Substrate reaction was added and incubated for 30 minutes at room temperature.

[3] = system: TRAP activity of RAW264.7 cells induced by RANKL; assay: TRAP activity assay; conditions: 10 ng/ml RANKL for 5 days, 10 μM
Protocol: 10^3 cells were plated per well in 96-well plates. […] When the reaction fluid became yellow, 0.1 M, 100 μl/well NaOH was added to terminate the reaction, and OD405 was examined in 37° C. b) 3 μl/well supernatant was examined by Bio-Red DC Protein Assay to detect the protein concentration.

| SMILES | cell proliferation induced by RANKL (MTT assay) (RAW264.7 cells [1]) | cell proliferation induced by RANKL (BrdU assay) (RAW264.7 cells [2]) | TRAP activity induced by RANKL [3] |
| --- | --- | --- | --- |
| Cn1c(=O)c2[nH]cnc2n(C)c1=O [theophylline] | have no previous inhibiting effect on cell proliferation induced by RANKL | have no previous inhibiting effect on cell proliferation induced by RANKL | have no obviously inhibiting effect on TRAP activity induced by RANKL |
| CCCc1nn(C)c2c(=O)[nH]c(-c3cc(S(=O)(=O)N4CCN(C)CC4)ccc3OCC)nc12 [sildenafil] | – | – | have no obviously inhibiting effect on TRAP activity induced by RANKL |
